Measured values: ChEMBL document CHEMBL1157988, “Loloatins A-D, cyclic decapeptide antibiotics produced in culture by a tropical marine bacterium” (1999)
Converted amounts (≈) assume the structure as drawn. Square brackets hold non-standard residues; d marks the D form. Peptide text beside a SMILES is read from it. Orn = NCCC[C@H](N)C(=O)O

Tests used:
Format in all cases: functional
[1] = system: Staphylococcus aureus; experiment: Antimicrobial activity against Staphylococcus aureus
[2] = system: Staphylococcus aureus; experiment: Antimicrobial activity against methicillin-resistant Staphylococcus aureus
[3] = system: Enterococcus faecalis; experiment: Antimicrobial activity against Enterococcus faecalis
[4] = system: Enterococcus faecalis; experiment: Antimicrobial activity against vancomycin-resistant Enterococcus faecalis
[5] = system: Enterococcus faecium; experiment: Antimicrobial activity against Enterococcus faecium
[6] = system: Enterococcus faecium; experiment: Antimicrobial activity against vancomycin-resistant Enterococcus faecium
[7] = system: Streptococcus pneumoniae; experiment: Antimicrobial activity against Streptococcus pneumoniae
[8] = system: Streptococcus pneumoniae; experiment: Antimicrobial activity against penicillin-resistant Streptococcus pneumoniae
[9] = system: Escherichia coli; experiment: Antimicrobial activity against Escherichia coli
[10] = system: Pseudomonas aeruginosa; experiment: Antimicrobial activity against Pseudomonas aeruginosa
[11] = system: Burkholderia cepacia; experiment: Antimicrobial activity against Pseudomonas cepacia
[12] = system: Stenotrophomonas maltophilia; experiment: Antimicrobial activity against Xanthomonas maltophilia
[13] = system: Candida albicans; experiment: Antimicrobial activity against Candida albicans

Row | SMILES | MIC [1] | MIC [2] | MIC [3] | MIC [4] | MIC [5] | MIC [6] | MIC [7] | MIC [8] | MIC [9] | MIC [10] | MIC [11] | MIC [12] | MIC [13]
1 | CC(C)C[C@@H]1NC(=O)[C@H](CCCN)NC(=O)[C@H](C(C)C)NC(=O)[C@H](Cc2c[nH]c3ccccc23)NC(=O)[C@H](CC(=O)O)NC(=O)[C@H](CC(N)=O)NC(=O)[C@@H](Cc2ccccc2)NC(=O)[C@H](Cc2ccccc2)NC(=O)[C@@H]2CCCN2C(=O)[C@@H](Cc2ccc(O)cc2)NC1=O [LOLOATIN B] | 2 µg/mL (≈ 1.54 µM) | 2 µg/mL (≈ 1.54 µM) | 2 µg/mL (≈ 1.54 µM) | 2 µg/mL (≈ 1.54 µM) | 2 µg/mL (≈ 1.54 µM) | 2 µg/mL (≈ 1.54 µM) | 1 µg/mL (≈ 0.771 µM) | 1 µg/mL (≈ 0.771 µM) | > 32 µg/mL | > 32 µg/mL | > 32 µg/mL | > 32 µg/mL | 8 µg/mL (≈ 6.17 µM)
2 | CC(C)C[C@@H]1NC(=O)[C@H](CCCN)NC(=O)[C@H](C(C)C)NC(=O)[C@H](Cc2c[nH]c3ccccc23)NC(=O)[C@H](CC(=O)O)NC(=O)[C@H](CC(N)=O)NC(=O)[C@@H](Cc2ccccc2)NC(=O)[C@H](Cc2ccccc2)NC(=O)[C@@H]2C[C@@H](O)CN2C(=O)[C@@H](Cc2ccc(O)cc2)NC1=O [LOLOATIN D] | 8 µg/mL (≈ 6.1 µM) | 8 µg/mL (≈ 6.1 µM) | 8 µg/mL (≈ 6.1 µM) | 8 µg/mL (≈ 6.1 µM) | 8 µg/mL (≈ 6.1 µM) | 8 µg/mL (≈ 6.1 µM) | 4 µg/mL (≈ 3.05 µM) | 4 µg/mL (≈ 3.05 µM) | > 32 µg/mL | > 32 µg/mL | > 32 µg/mL | > 32 µg/mL | 16 µg/mL (≈ 12.2 µM)
3 | CC(C)C[C@@H]1NC(=O)[C@H](CCCN)NC(=O)[C@H](C(C)C)NC(=O)[C@H](Cc2c[nH]c3ccccc23)NC(=O)[C@H](CC(=O)O)NC(=O)[C@H](CC(N)=O)NC(=O)[C@@H](Cc2ccccc2)NC(=O)[C@H](Cc2c[nH]c3ccccc23)NC(=O)[C@@H]2CCCN2C(=O)[C@@H](Cc2ccc(O)cc2)NC1=O [LOLOATIN C] (cyclo(DWV[Orn]L[dY]PW[dF]N)) | 0.5 µg/mL (≈ 0.374 µM) | 0.5 µg/mL (≈ 0.374 µM) | 1 µg/mL (≈ 0.749 µM) | 1 µg/mL (≈ 0.749 µM) | 2 µg/mL (≈ 1.5 µM) | 2 µg/mL (≈ 1.5 µM) | < 0.25 µg/mL | – | 1 µg/mL (≈ 0.749 µM) | > 32 µg/mL | > 32 µg/mL | > 32 µg/mL | 8 µg/mL (≈ 5.99 µM)
4 | CC(C)C[C@@H]1NC(=O)[C@H](CCCN)NC(=O)[C@H](C(C)C)NC(=O)[C@H](Cc2ccc(O)cc2)NC(=O)[C@H](CC(=O)O)NC(=O)[C@H](CC(N)=O)NC(=O)[C@@H](Cc2ccccc2)NC(=O)[C@H](Cc2ccccc2)NC(=O)[C@@H]2CCCN2C(=O)[C@@H](Cc2ccc(O)cc2)NC1=O [LOLOATIN A] | 4 µg/mL (≈ 3.14 µM) | 4 µg/mL (≈ 3.14 µM) | 4 µg/mL (≈ 3.14 µM) | 4 µg/mL (≈ 3.14 µM) | 4 µg/mL (≈ 3.14 µM) | 4 µg/mL (≈ 3.14 µM) | 1 µg/mL (≈ 0.785 µM) | 2 µg/mL (≈ 1.57 µM) | > 32 µg/mL | > 32 µg/mL | > 32 µg/mL | > 32 µg/mL | 8 µg/mL (≈ 6.28 µM)
